The NIST ThermoML archive (doi:10.1016/j.jct.2015.11.017)
± gives the expanded uncertainty stated by the source.

Assay: mn = molality of the nth substance listed, in mol/kg
Settings: 298.2 K, 101.3 kPa, Liquid, Alternating current cell with electrodes

CCCCCCCCCCCCOS(=O)(=O)[O-].[Na+] [sodium dodecyl sulfate] + O
electrical conductivity (m1 = 0.01003): 0.0586 ± 0.001 S/m
electrical conductivity (m1 = 0.01504): 0.0684 ± 0.001 S/m
electrical conductivity (m1 = 0.02006): 0.0816 ± 0.001 S/m
electrical conductivity (m1 = 0.02507): 0.097 ± 0.01 S/m
electrical conductivity (m1 = 0.03009): 0.106 ± 0.01 S/m
